# Reference: US9238812B2, “Agent for suppressing expression of dominant mutant gene” (LSIP, LLC, priority 2010, dated 2016)
# r = 2'-OH (RNA)
# What was measured:
# PC3 cells [1] = assay: Cell death (apoptosis) evaluation, caspase 3/7 activity; type: cell-based, human; conditions: culture day 4, compared with No siRNA and siControl
# Procedure: PC3 cells were cultured in the same way as in “Example 2(1)”.
# Electroporation was performed in the same way as in “Example 2(2)”.
# The cells were cultured (cell density: approximately 3×10^4 cells/well) in a 96-well culture plate using the culture solution of the paragraph (1). One day and 4 days later, the cells were subjected to each evaluation experiment. si747/49-3D19 was also subjected to similar evaluation experiments, together with a control, 2 days and 6 days after the cell culture.
# In order to evaluate the cell death (apoptosis) of PC3 cells after the introduction of si747/49-3D19, caspase 3/7 activity was measured using Caspase-Glo 3/7 Assay (Promega Corp.). The experimental procedures followed the protocol included in the product. Luminescence intensity was measured using Fusion Universal Microplate Analyzer (Perkin Elmer Inc.). The negative controls used were the same two controls (No siRNA and siControl) as in the cell growth ability assay.
# PC3 cells [2] = assay: Cell growth and survival activity of PC3 cells exposed to gefitinib or EGFR-siRNA at varying concentrations; type: cell-based, human; conditions: siRNA 0-100 nM by electroporation, 3 days
# Procedure: In order to evaluate the cell growth and survival activity of PC3 cells after the introduction of si747/49-3D19, MTS reductive effect induced by nicotinamide adenine dinucleotide (NADH) contained in live cells was measured using CellTiter 96 AQueous Non-Radioactive Cell Proliferation Assay (Promega Corp.). The experimental procedures followed the protocol included in the product. Absorbance was measured using BenchMark Plus (Bio-Rad Laboratories, Inc.). The negative controls used were the same two controls (No siRNA and siControl) as in the cell growth ability assay.
# The analysis employed human non-small cell lung cancer-derived cell line PC3 cells and PC9 cells having EGFR del(L747-E749)-A750P mutation and del(E746-A750) mutation, respectively, and control human HeLa cells having wild-type EGFR.
# The cultured PC3 cells, PC9 cells, and HeLa cells were separately dispersed by trypsin digestion, then collected by centrifugation (120 G, 5 min.), and cultured (cell density: approximately 1×10^5 cells/cm^2) in a 96-well culture plate. […] 3 days later, cell survival activity was measured.
# 3 days later, cell survival activity was measured.
# Cell growth and survival activity evaluation (1)”.
substance,measurement,setting,value
"si747/49-3D19: siRNA against EGFR del(L747-E749)-A750P(G) mutant gene; ss SEQ ID NO 55, as SEQ ID NO 56, 3′ UU added (sense GUCGCUAUCAAGGAGCCAA; antisense UUGGCUCCUUGAUAGCGAC; RNA, 3' rUrU, backbone not given here; listed as Homo sapiens)",caspase 3/7 activity (apoptosis),PC3 cells [1],did not cause significant change
same,cell growth and survival activity after EGFR-siRNA,PC3 cells [2],apparently suppress cell growth and reduce survival activity
